Laboratory results: article PMC7907166, “AOA-2 Derivatives as Outer Membrane Protein A Inhibitors for Treatment of Gram-Negative Bacilli Infections” (Frontiers in Microbiology, 2021)
Positions of bridges follow the written chain, without caps; N, C: chain ends. Non-standard residues stand in square brackets, D forms with d. Residues, ends and D or L forms follow the SMILES beside them. *: point of attachment. X1 = CC[C@H](C)CCCCC(=O)*; Dab = NCC[C@H](N)C(=O)O

Experiments:
[1] = system: OmpA-deficient mutant A. baumannii, JPAB01; assay type: cell-based; settings: for MIC of colistin in presence of peptide: peptide added at 125 μg/mL, did not change the activity
[2] = system: A. baumannii ATCC 17978; assay type: cell-based; settings: microdilution, two independent experiments; for MIC of colistin in presence of peptide: peptide added at 125 μg/mL
Description: The minimal inhibitory concentration (MIC) of colistin in absence and presence of RW01 or RW06 at […] for A. baumannii ATCC 17978 strain was determined by microdilution assay in two independent experiments as previously reported ([Parra-Millán et al., 2018]).

[3] = system: P. aeruginosa PAO1; test: Bacterial adhesion assay to A549 cells; assay type: cell-based; settings: for adherence of P. aeruginosa to A549 cells reduced to: bacteria pre-incubated with peptide 250 μg/mL 30 min, MOI 500, 2 h, CFU count; for adherence of PAO1 strain to A549 cells compared with AOA-2: peptide 125, 62.5 and 31.25 μg/mL, some statistical differences, Figure 2B; for adherence of PAO1 strain to A549 cells (in words): peptide 250 μg/mL, 30 min, Figure 2A
Description: (§1) The human pneumocyte cell line type II A549, derived from a human lung carcinoma, obtained from the American Type Culture Collection was used and cultured in DMEM medium (Invitrogen, Spain) supplemented with 10% of heat-inactivated fetal bovine serum, 50 μg/mL vancomycin (Laboratorios Normon, Spain), 20 μg/mL gentamicin (Normon Laboratories, Spain), 0.25 μg/mL amphotericin B mL (Invitrogen, Spain) and 1% HEPES (Invitrogen, Spain) in a humidified incubator, 5% CO2 at 37°C. Routine passage of A549 cells was performed every 3–4 days. Cells were seeded 24 h in 96-well plates (Sarstedt, Germany) for the cell viability assay, and in 24-well plates (Sarstedt, Germany) for the bacterial adhesion assays.
(§2) A. baumannii ATCC 17978, P. aeruginosa PAO1 and E. coli ATCC 25922 strains were incubated with AOA-2 (31.25, 62.5, 125, and 250 μg/mL, 30 min), AOA-2 derivatives RW01, RW02, RW03, RW06, RW07, RW08, RW09, RW10, RW11, and RW13 (250 μg/mL, 30 min), or AOA-2 derivatives RW01, RW02, RW03, RW06 (31.25, 62.5, and 125 μg/mL, 30 min), and added at 10^8 CFU/mL, corresponding to a multiplicity of infection (MOI) of 500, to the A549 cells for 2 h at 5% CO2 and 37°C. Subsequently, infected A549 cells were washed five times with prewarmed PBS 1X and lysed with 0.5% Triton X-100. Serial dilutions of these lysates were made and plated on blood agar plates (Blood-Agar Columbia, Becton Dickinson Microbiology Systems, United States) and incubated at 37°C for 24 h for colony counting and then determination of CFU/mL that attached to A549 cells.

[4] = system: A. baumannii ATCC 17978; test: Bacterial adhesion assay to A549 cells; assay type: cell-based; settings: for adherence of A. baumannii to A549 cells reduced to: bacteria pre-incubated with peptide 250 μg/mL 30 min, MOI 500, 2 h, CFU count; for adherence of ATCC 17978 to A549 cells compared with AOA-2: peptide 125, 62.5 and 31.25 μg/mL, except RW06 at 31.25 μg/mL, Figure 2B
Description: as §1, §2

[5] = system: E. coli ATCC 25922; test: Bacterial adhesion assay to A549 cells; assay type: cell-based; settings: for adherence of E. coli to A549 cells reduced to: bacteria pre-incubated with peptide 250 μg/mL 30 min, MOI 500, 2 h, CFU count; for adherence of ATCC 25922 to host cells compared with AOA-2: peptide 125, 62.5 and 31.25 μg/mL, Figure 2B; for adherence of ATCC 25922 strain to A549 cells (in words): peptide 250 μg/mL, 30 min, Figure 2A
Description: as §1, §2

[6] = system: P. aeruginosa PAO1; test: Bacterial cytotoxicity: viability of infected A549 cells (MTT); assay type: cell-based; settings: 24 h infection
Description: (§3) A549 cells were incubated with the peptide derivatives RW01, RW02, RW03, RW06, RW07, RW08, RW09, RW10, RW11, and RW13 (0, 3.5, 7, 15, 35, 62, 125, 250, and 500 μg/mL) for 24 h with 5% CO2 at 37°C. Prior the evaluation of the peptides cytotoxicity, A549 cells were washed three times with prewarmed PBS 1X. Subsequently, quantitative cytotoxicity was evaluated by measuring the mitochondrial reduction activity using the 3-(4,5-dimethylthiazol-2-yl)-2,5-diphenyltetrazolium bromide (MTT) assay as described previously ([Smani et al., 2013]). The percentage of […] was calculated from the absorbance at 570 nm as follow: [(Absorbance 570 nm of treated cells/Absorbance 570 nm mean of untreated cells) × 100].
(§4) A549 cells were infected with 10^8 CFU/mL, corresponding to a MOI of 500, of A. baumannii ATCC 17978, P. aeruginosa PAO1 and E. coli ATCC 25922 strains pretreated with AOA-2 or AOA-2 derivatives RW01, RW02, RW03, and RW06 (31.25, 62.5, and 125 μg/mL, 30 min) for 24 h with 5% CO2 at 37°C. Prior to the evaluation of bacterial cytotoxicity, viable bacteria are first removed from A549 cell culture by washing these A549 cells five times with PBS 1X. Subsequently, cell viability was evaluated as described above.

[7] = system: A. baumannii ATCC 17978; test: as above; assay type: cell-based; settings: for cell viability of infected A549 cells with respect to untreated strain: 24 h infection
Description: as §3, §4

[8] = system: E. coli ATCC 25922; test: as above; assay type: cell-based; settings: for cell viability of infected A549 cells with respect to untreated strain: ATCC 25922 pretreated with peptide 125, 62.5 and 31.25 μg/mL, 24 h infection
Description: as §3, §4

[9] = system: A549 cells; parameters: method as in Vila-Farrés et al., 2017; settings: cited from earlier work
[10] = system: A. baumannii; parameters: method as in Parra-Millán et al., 2018; settings: ref Parra-Millán et al., 2018; cited from earlier work
Excerpt: Therefore, we thought it would be interesting to examine the capacity of RW01 and RW06 to potentiate the activity of colistin against A. baumannii ATCC 17978 strain.

[11] = system: A. baumannii, P. aeruginosa, and E. coli; settings: in vivo administration, ref Vila-Farrés et al., 2017, cited from earlier work
Excerpt: This study focuses on the paradigm of interference in pathogenesis, that is, disarming pathogenic bacteria by neutralizing their virulence factors ([Dickey et al., 2017]).

[12] = system: colistin-resistant A. baumannii; settings: ref Parra-Millán et al., 2018; cited from earlier work
Excerpt: The therapeutic efficacy of these […] should also be further evaluated in combination with antimicrobial agents used in the clinical setting.

[13] = ATCC 17978 pretreated with peptide 125 μg/mL only

CC[C@H](C)CCCCC(=O)N[C@@H](CCN)C(=O)N[C@H](C(=O)N[C@@H](CCN)C(=O)N[C@H]1CCNC(=O)[C@H]([C@@H](C)O)NC(=O)[C@H](CCN)NC(=O)[C@H](CCN)NC(=O)[C@H](CC(C)C)NC(=O)[C@@H](CC(C)C)NC(=O)[C@H](CCN)NC1=O)[C@@H](C)O [colistin, reference compound] (X1-[Dab]T[Dab][Dab][Dab][dL]L[Dab][Dab]T; lactam 4-C (inferred); N-terminus assumed)
MIC of colistin ([1]; colistin alone, microdilution): 0.0625 µg/mL | MIC of colistin ([2]; colistin alone): 0.5 µg/mL

&2Nal-D-Pro-Arg-2Nal-D-Pro-Arg& (head to tail) [RW03, AOA-2 derivative with tryptophan analog 2Nal]
adherence of P. aeruginosa to A549 cells reduced to [3]: 20.71% | adherence of PAO1 strain to A549 cells compared with AOA-2 [3]: reduced better | adherence of A. baumannii to A549 cells reduced to [4]: 55.47% | adherence of E. coli to A549 cells reduced to [5]: 29.62% | adherence of ATCC 25922 to host cells compared with AOA-2 [5]: reduced with some statistical differences

&2Nal-D-Pro-Arg-3Pal-D-Pro-Arg& (head to tail) [RW11]
adherence of PAO1 strain to A549 cells (in words) [3]: reduced

&3Pal-D-Pro-Arg-3Pal-D-Pro-Arg& (head to tail) [RW02, AOA-2 derivative with tryptophan analog 3Pal]
adherence of P. aeruginosa to A549 cells reduced to [3]: 42.51% | adherence of PAO1 strain to A549 cells compared with AOA-2 [3]: reduced better | adherence of A. baumannii to A549 cells reduced to [4]: 43.58% | adherence of E. coli to A549 cells reduced to [5]: 61.11%

&3Pal-D-Pro-Arg-Trp-D-Pro-Tyr& (head to tail) [RW13]
adherence of PAO1 strain to A549 cells (in words) [3]: reduced | adherence of ATCC 25922 strain to A549 cells (in words) [5]: reduced

&Arg-D-Pro-Trp-Trp-D-Pro-Arg& (head to tail) [RW08]
adherence of PAO1 strain to A549 cells (in words) [3]: reduced | adherence of ATCC 17978 strain to A549 cells (in words) ([4]; peptide 250 μg/mL, 30 min, Figure 2A): reduced

&Trp-(NH2) D-Pro-Arg-Trp-D-Pro-Arg& (head to tail) [RW01, AOA-2 derivative, solubility enhanced by the addition of NH2 group]
adherence of P. aeruginosa to A549 cells reduced to [3]: 40.08% | adherence of PAO1 strain to A549 cells compared with AOA-2 [3]: reduced better | adherence of A. baumannii to A549 cells reduced to [4]: 26.18% | adherence of ATCC 17978 to A549 cells compared with AOA-2 [4]: reduced non-statistically | adherence of E. coli to A549 cells reduced to [5]: 66.66% | adherence of ATCC 25922 to host cells compared with AOA-2 [5]: reduced with some statistical differences | cell viability of infected A549 cells with respect to untreated strain ([6]; PAO1 pretreated with peptide 125 and 62.5 μg/mL (31.25 μg/mL excepted)): increased significantly | cell viability of infected A549 cells with respect to untreated strain [7, 13]: increased significantly | cell viability of infected A549 cells with respect to untreated strain [8]: increased significantly | protection from cell death caused by ATCC 25922 compared with AOA-2 ([8]; peptide 62.5 and 31.25 μg/mL): more protective | MIC of colistin in presence of peptide [1]: 0.0625 µg/mL | MIC of colistin in presence of peptide [2]: 0.015 µg/mL

&Trp-D-Pro-Arg-Trp-D-Pro-Arg& (head to tail) [AOA-2]
adherence of P. aeruginosa to A549 cells reduced to [3]: 84.47% | adherence of A. baumannii to A549 cells reduced to [4]: 36.62% | adherence of E. coli to A549 cells reduced to [5]: 65.05% | toxicity in human lung epithelial cells [9]: did not show toxicity | cell viability of infected A549 cells with respect to untreated strain ([6]; PAO1 pretreated with peptide 125, 62.5 and 31.25 μg/mL): did not increase significantly | cell viability of infected A549 cells with respect to untreated strain ([7]; ATCC 17978 pretreated with peptide 125, 62.5 and 31.25 μg/mL, 30 min): did not increase significantly | cell viability of infected A549 cells with respect to untreated strain [8]: did not increase significantly | synergy with colistin [10]: synergize with colistin | mice mortality ([11]; especially in A. baumannii): significant decrease | bacterial load in tissues [11]: large decrease | therapeutic efficacy when combined with colistin [12]: good therapeutic efficacy

&Trp-D-Pro-Dab-Trp-D-Pro-Dab& (head to tail) [RW06, AOA-2 derivative with arginine analog Dab]
adherence of P. aeruginosa to A549 cells reduced to [3]: 31.14% | adherence of PAO1 strain to A549 cells compared with AOA-2 [3]: reduced better | adherence of A. baumannii to A549 cells reduced to [4]: 32.83% | adherence of ATCC 17978 to A549 cells compared with AOA-2 [4]: reduced non-statistically | adherence of E. coli to A549 cells reduced to [5]: 44.44% | adherence of ATCC 25922 to host cells compared with AOA-2 [5]: reduced with some statistical differences | cell viability of infected A549 cells with respect to untreated strain ([6]; PAO1 pretreated with peptide 62.5 and 31.25 μg/mL (125 μg/mL excepted)): did not increase significantly | cell viability of infected A549 cells with respect to untreated strain [7, 13]: increased significantly | protection from cell death caused by ATCC 17978 compared with AOA-2 ([7]; peptide 62.5 μg/mL): protected more significantly | cell viability of infected A549 cells with respect to untreated strain [8]: did not increase significantly | MIC of colistin in presence of peptide [1]: 0.0625 µg/mL | MIC of colistin in presence of peptide [2]: 0.015 µg/mL

&Trp-D-Pro-Lys-Trp-D-Pro-Lys& (head to tail) [RW07, AOA-2 derivative with arginine analog lysine]
adherence of PAO1 strain to A549 cells (in words) [3]: reduced | adherence of ATCC 25922 strain to A549 cells (in words) [5]: reduced

&Trp-D-Pro-Trp-Arg-D-Pro-Arg& (head to tail) [RW09]
adherence of PAO1 strain to A549 cells (in words) [3]: reduced

&Tyr-D-Pro-Ala-Tyr-D-Pro-Ala& (head to tail) [RW10]
adherence of PAO1 strain to A549 cells (in words) [3]: reduced
